The structures appear in SMILES notation. Where “and” joins values, the source holds several entries; their conditions need not be identical. Equal values may be shown once.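 A five-concentration, 48-hour dose response in 96-well plates underlies each endpoint, interpolated linearly between surrounding concentrations. The concentration for 50% growth inhibition is given as GI50. Definition used: TGI = concentration required for complete inhibition of growth.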

Among the test systems are A549 NSCLC; ACHN renal; K-562 leukemia; M14 melanoma; NCI-H23 lung; NCI-H522 lung; RXF 393 renal; SF-539 CNS; SW-620 colon; U251 CNS.
Assay in all cases: growth of human tumour cells (NCI), 48 h

As to `CC[C@H](C)N(CCN)C(=O)c1cc2ccccc2c(-c2ccccc2Cl)n1`, the TGI in the test with A549 NSCLC is above 100 µM; with ACHN renal it was 28.1 µM; in the test with K-562 leukemia, 12.6 µM; with M14 melanoma, 44800 nM; in the test with NCI-H23 lung, 28.6 µM; in the test with NCI-H522 lung it was 34 µM. For the same compound, the TGI in the test with RXF 393 renal came out at 19700 nM; in the test with SF-539 CNS, 6500 nM; in the test on SW-620 colon it was 30 µM; in the test with U251 CNS it was 24.4 µM.

Regarding `COc1ccc(-c2nn3ncccc3c2-c2ccnc(Nc3ccc(Cl)c(C(F)(F)F)c3)n2)cc1`, the GI50 in the test with A549 NSCLC was 10.8 µM; with ACHN renal it was 10100 nM; with K-562 leukemia, 10800 nM; with M14 melanoma, 11500 nM; with NCI-H23 lung it was 10600 nM; in the test with NCI-H522 lung it was 12400 nM. The GI50 with RXF 393 renal was 5660 nM; in the test with SF-539 CNS, above 18900 nM; with SW-620 colon, 14400 nM; in the test with U251 CNS, 12.4 µM. The TGI is above 25 µM in the test with A549 NSCLC; above 25 µM in the test with ACHN renal; above 25 µM with K-562 leukemia; above 25000 nM with M14 melanoma; above 25 µM in the test on NCI-H23 lung; above 25 µM with NCI-H522 lung. The TGI with RXF 393 renal was above 24000 nM; in the test on SF-539 CNS, above 25000 nM; in the test with SW-620 colon it was above 25 µM; in the test with U251 CNS, above 25 µM.

`O=P(O)(CCP(=O)(O)c1ccccc1)c1ccccc1`: the TGI with A549 NSCLC was above 100 µM; in the test with ACHN renal it was above 100 µM; in the test on K-562 leukemia, above 100 µM; with M14 melanoma it was above 100000 nM; with NCI-H23 lung, above 100 µM; in the test with NCI-H522 lung, above 100 µM. The TGI was above 100000 nM in the test with RXF 393 renal, above 100000 nM in the test on SF-539 CNS, above 100 µM in the test with SW-620 colon and above 100 µM in the test with U251 CNS.

Regarding `CN1CC[C@@H](c2c(O)cc(O)c3c(=O)cc(-c4ccccc4Cl)oc23)[C@@H](O)C1`, the GI50 was 0.0793 µM and 0.161 µM in the test with A549 NSCLC; 34.6 nM in the test with ACHN renal; 212 nM and 145 nM in the test on K-562 leukemia; 77.1 nM and 27.8 nM in the test with M14 melanoma; 90.8 nM and 103 nM and 45.3 nM in the test with NCI-H23 lung; 48.1 nM and 21.8 nM and 19.6 nM with RXF 393 renal. Moreover, the GI50 with SF-539 CNS was 68.8 nM and 19.7 nM; with SW-620 colon, 59.4 nM and 65.3 nM. The TGI with A549 NSCLC was 33.8 µM; in the test on ACHN renal, 15.6 µM; in the test with M14 melanoma, 225 nM and 226 nM and 104 nM; in the test with NCI-H23 lung, 0.23 µM and 0.301 µM and 0.189 µM; in the test with NCI-H522 lung it was 0.222 µM and 0.319 µM; in the test on RXF 393 renal, 89.2 nM and 49.5 nM and 42.8 nM. The TGI with SF-539 CNS is 141 nM and 57 nM and 148 nM; with SW-620 colon, 23.2 µM; with U251 CNS, 31 µM.

Consider `C=C1CC2(OC1=O)C(=O)N(CCCCCCCN1C(=O)C3(CC(=C)C(=O)O3)c3ccccc31)c1ccccc12` (stereo not drawn), for which the GI50 with A549 NSCLC was 9.16 µM; in the test on ACHN renal, 1130 nM; with K-562 leukemia, 953 nM; in the test on M14 melanoma, 1450 nM; in the test with NCI-H23 lung, 3710 nM; with NCI-H522 lung, 820 nM. Further, the GI50 in the test with RXF 393 renal was 860 nM; in the test on SF-539 CNS, 1260 nM; with SW-620 colon, 938 nM; in the test on U251 CNS, 5.81 µM. The TGI with A549 NSCLC was 24.8 µM; in the test with ACHN renal, 3.07 µM; in the test with K-562 leukemia, 6.06 µM; in the test on M14 melanoma it was 5600 nM; in the test on NCI-H23 lung, 11.6 µM; in the test with NCI-H522 lung, 1.85 µM. For the same compound, the TGI with RXF 393 renal came to 2060 nM; with SF-539 CNS, 4270 nM; in the test with SW-620 colon, 2.21 µM; in the test with U251 CNS, 12.4 µM.

Turning to `C=C1C(=O)O[C@H]2[C@H]1CC/C(COC(=O)c1cc3cc(F)ccc3[nH]1)=C\CC[C@@]1(C)O[C@@H]21`, the GI50 was 3.08 µM in the test with A549 NSCLC; 1460 nM with ACHN renal; 2240 nM in the test with K-562 leukemia; 1890 nM with M14 melanoma; 1900 nM with NCI-H23 lung; 1660 nM in the test on NCI-H522 lung. Further, the GI50 is 1470 nM in the test on RXF 393 renal, 1550 nM in the test on SF-539 CNS, 1430 nM in the test with SW-620 colon and 1.82 µM with U251 CNS. Also, the TGI in the test on A549 NSCLC is 8.73 µM; with ACHN renal, 2.94 µM; in the test on K-562 leukemia, 12.1 µM; in the test on M14 melanoma, 4110 nM; in the test on NCI-H23 lung, 4.26 µM; in the test on NCI-H522 lung it was 3.38 µM. The TGI in the test with RXF 393 renal was found to be 2870 nM; in the test with SF-539 CNS, 3190 nM; in the test on SW-620 colon it was 4.09 µM; in the test on U251 CNS, 3.57 µM.

With `C=CCn1c2c(c3ccccc3c1=O)C(=O)c1ccccc1-2`, the TGI with A549 NSCLC was above 100 µM; in the test with ACHN renal, above 100 µM; in the test with K-562 leukemia it was above 100 µM; in the test on M14 melanoma it was above 100000 nM; in the test with NCI-H23 lung, above 100 µM; in the test with NCI-H522 lung, above 100 µM. Further, the TGI is above 100000 nM with RXF 393 renal, above 100000 nM with SF-539 CNS, above 100 µM with SW-620 colon and above 100 µM in the test on U251 CNS.

Take `N#Cc1c(Sc2ccccc2N)cccc1Sc1ccccc1N`: the GI50 is 56.9 µM in the test with A549 NSCLC; 35200 nM in the test with ACHN renal; 22900 nM with K-562 leukemia; 62600 nM in the test on M14 melanoma; 59000 nM in the test on NCI-H23 lung; 51700 nM in the test with NCI-H522 lung. Also, the GI50 was 72800 nM in the test on RXF 393 renal, 69700 nM with SF-539 CNS, 79800 nM in the test with SW-620 colon and 35.6 µM in the test with U251 CNS.

On to `Cc1nc2c(nc1C)C(=O)c1cc(O)ccc1C2=O`, for which the TGI is above 100 µM in the test on A549 NSCLC; above 100 µM in the test with ACHN renal; above 100 µM in the test with K-562 leukemia; above 100000 nM in the test on M14 melanoma; above 100 µM in the test with NCI-H23 lung; above 100 µM with NCI-H522 lung. Besides, the TGI in the test on RXF 393 renal is above 100000 nM; in the test on SF-539 CNS it was above 100000 nM; with SW-620 colon, above 100 µM; in the test on U251 CNS, above 100 µM.

Consider `C[C@@H]1C[C@@H](O)[C@]2(O)O[C@@H]3C[C@@]4(C=O)[C@@H](CC[C@@H]5[C@@H]4CC[C@]4(C)[C@@H](C6=CC(=O)OC6)CC[C@]54O)C[C@H]3O[C@@H]2O1`, for which the GI50 in the test on A549 NSCLC is 0.0146 µM; in the test on ACHN renal it was 6.92 nM and 5 nM; in the test with K-562 leukemia, 55.3 nM and 12.4 nM; with M14 melanoma it was 89.1 nM and 32.4 nM; in the test with NCI-H23 lung, 28.2 nM and 5 nM; with NCI-H522 lung, 7.51 nM. Further, the GI50 is 15 nM and 5 nM in the test with SF-539 CNS; 52.5 nM and 11.1 nM in the test on SW-620 colon; 0.0449 µM and 0.0153 µM in the test on U251 CNS. Besides, the TGI was 0.0117 µM and 0.0413 µM in the test on A549 NSCLC; 0.601 µM and 1.59 µM and 0.523 µM in the test with K-562 leukemia; 74 nM and 232 nM and 200 nM in the test with M14 melanoma; 59.9 nM in the test with RXF 393 renal; 14.6 nM and 37 nM and 14.4 nM in the test on SF-539 CNS; 0.0591 µM and 0.221 µM and 0.164 µM in the test on SW-620 colon. Besides, in the test on U251 CNS, the TGI is 0.0725 µM and 0.158 µM and 0.0697 µM.
